Assay results as given in article PMC9379910, “Chimeric Ligands of Pili and Lectin A Inhibit Tolerance, Persistence, and Virulence Factors of Pseudomonas aeruginosa over a Wide Range of Phenotypes” (ACS Infectious Diseases, 2022).

Key:
LecA [1] = molecular target: T1, LecA (Pseudomonas aeruginosa, UniProt Q05097); experiment: competitive fluorescence polarization (displacement of βGal-aryl-Dansyl from […] LecA); also motility-enabled binding assay
LecA [2] = molecular target: T1, LecA; experiment: direct fluorescence polarization titration with LecA ([…]); type: binding
LecA [3] = molecular target: T1, LecA; experiment: competitive fluorescence polarization (displacement of βGal-aryl-Dansyl from […] LecA); type: binding

T1 sequence (Q05097 2-122): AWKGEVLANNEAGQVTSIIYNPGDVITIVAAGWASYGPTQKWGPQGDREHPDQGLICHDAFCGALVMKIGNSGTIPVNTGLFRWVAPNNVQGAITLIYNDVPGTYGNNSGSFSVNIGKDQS

CCCCCCCC(C)CC(C)CCO[C@@H]1O[C@H](CO)[C@@H](O[C@H]2O[C@H](CO)[C@@H](O)[C@H](O)[C@H]2O)[C@H](O)[C@H]1O (stereo partly drawn) [1a, 3,5-diMeDβM]
IC50 (LecA [1]): 15 µM

CN(C)c1cccc2c(S(=O)(=O)Nc3ccc(O[C@@H]4O[C@H](CO)[C@H](O)[C@H](O)[C@H]4O)cc3)cccc12 [βGal-aryl-Dansyl]
Kd (LecA [2]): ~10.7 µM

CCCCCCCC(C)CC(C)CCO[C@@H]1O[C@H](CO)[C@@H](O[C@@H]2O[C@H](CO)[C@@H](O)[C@H](O)[C@H]2O)[C@H](O)[C@H]1O (stereo partly drawn) [1b, 3,5-diMeDβC]
IC50 (LecA [3]): 13 µM
